Read-outs that look alike come from different tables or passages of the source.
Key:
Format in all cases: in vivo
Kunming mice = assay: Acetic acid-induced writhing test; details: for ED50: Mus musculus, read-out: ED50, analgesic activity in writhing test
Method: Kunming mice (18-22 g, male and female each half) were divided into a negative control group, an Aspirin control group, a morphine control group and a group of the compound of the invention. Each group of mice were respectively administered corresponding medicine (0.2 ml/10 g) intragastrically or subcutaneously, The mice of the negative control group were administered, the same volume vehicle. After 60 minutes (intragastrically) or 30 minutes (subcutaneously), each group of mice were administered 0.6% acetic acid solution (0.4 ml) by intraperitoneal injecting, and then writhing times in 15 minutes were observed and recorded immediately. Writhing inhibition rate in mice was used as the pharmacodynamic index of analgesic activity. Writhing inhibition rate(%)=(writhing times of negative control group−writhing times of medicine group)/Writhing times of negative control group×100%
ED50 values were calculated according to the result.

Sprague-Dawley (SD) rats [1] = assay: Spared nerve injury (SNI) test; details: intragastrically on Day 12, 13, 14 after surgery, mechanical allodynia at 60 minutes after administration; for ED50: Rattus norvegicus, po, read-out: ED50, analgesic activity in the spared nerve injury (SNI) test
Text: Neuropathic pain is also called for short as neuralgia, which is a common chronic pain. It is an abnormal pain condition caused by hurt or disease-induced trauma of peripheral or central nerve, and can not be cured effectively till now. Sciatic nerve branches selective injury model (spared nerve injury, SNI) is a neuralgia model established in 2000 (see Spared nerve injury: an animal model of persistent peripheral neuropathic pain, Pain, 2000 August; 87(2): 149-58). The model can produce […] robust mechanical allodynia, so it can simulate the clinic nerve pathologic pain relatively well.
Adult male Sprague-Dawley (SD) rats weighting 200-250 g (Experimental Animal Center of Xuzhou Medical College) were employed in the test after acclimation by feeding for 1 week. First, Sciatic nerve branches selective injury model (spared nerve injury, SNI) was replicated, The rats of successful modeling were administered intragastrically on Day 12, 13, 14 after surgery. The mechanical allodynia were measured at 60 minutes after administration every day (von Frey Cilia Apparatus, manufactured by Institute of Biology Bioengineering, Chinese Academy of Medical Science).

KM female mice = assay: Hot-plate test in mice; details: for ED50: Mus musculus, 1 h, read-out: ED50, analgesic activity in the hot-plate test
Text: Hot-plate test is one of conventional physiological pain models. Mice lick hind paws, jump up and so on when they are subject to thermal stimulus. Analgesics that take effect on central nervous system can increase the thermo-pain threshold, prolong the latency of protective response.
KM female mice weighting 18-22 g were employed in the test. Primary screening was done before the test to remove the animals whose responses were too slow (>30 s) or too sensitive (<6 s). The mice passing the primary screening were divided into a negative control group, a morphine control group and a group of the compound of the invention. Each group of mice were respectively administered corresponding dose of medicine intragastrically or by intravenous injection, and 60 minutes later, a hot-plate test was done on those mice. The time of first licking hind paws and jumping up was recorded (the data over 60 s is recorded as 60) and compared with the latency of the animals in the control group. The analgesic activity of each dose was calculated and ED50 was calculated from the analgesic activity.

Sprague-Dawley (SD) rats [2] = assay: Bee venom test; details: for ED50: Rattus norvegicus, central, 5 min, read-out: ED50, analgesic activity in the bee venom test; for ED50, analgesic activity in the bee venom test: intrathecally, bee venom 5 minutes after administration
Method: Adult male Sprague-Dawley (SD) rats weighting 200-250 g were used in the test after acclimation by feeding for 1 week. First, tubes were placed intrathecally (i.t.) in rats. The rats with good conditions after 3-4 days were selected for the bee venom test. The animals were divided into an intrathecal DMSO group, an intrathecal morphine group and a group of intrathecal compounds of the invention. 5 minutes after administration, each group of rats was […] injected with 50 μl of bee venom at their left hind limbs. Times of feet spontaneous drawing back every 5 minutes in 60 minutes, as well as total times of feet drawing back in an hour were observed and recorded. The response latency to heat stimulus and threshold of mechanical stimulus on both thenars of each group of rats were measured before intrathecal administration and 2 hours after bee venom injection respectively.

[3] = po, intragastrically, acetic acid 60 minutes after dosing, writhing times in 15 minutes
[4] = sc, subcutaneously (S. C), acetic acid 30 minutes after dosing, writhing times in 15 minutes
[5] = intragastrically, acetic acid 60 minutes after dosing, writhing times in 15 minutes
[6] = subcutaneously (S. C), acetic acid 30 minutes after dosing, writhing times in 15 minutes
[7] = intragastrically, tested 60 minutes after dosing
[8] = intravenous injection, tested 60 minutes after dosing

Row | SMILES | ED50, analgesic activity in the spared nerve injury (SNI) test (Sprague-Dawley (SD) rats [1]) [mg/kg] | ED50, analgesic activity in writhing test (Kunming mice; [5]) [mg/kg] | ED50, analgesic activity in writhing test (Kunming mice; [6]) [mg/kg] | ED50, analgesic activity in the hot-plate test (KM female mice; [7]) [mg/kg] | ED50, analgesic activity in the hot-plate test (KM female mice; [8]) [mg/kg] | ED50, analgesic activity in the bee venom test (Sprague-Dawley (SD) rats [2]) [mg/kg] | further results
1 | CC(=O)Oc1ccccc1C(=O)O [Aspirin, reference compound] | – | – | – | – | – | – | ED50 (Kunming mice; [3]): 100 mg/kg; ED50 (Kunming mice; [4]): 80 mg/kg
2 | O=C(CN1CCN(c2ccccc2Cl)CC1)c1ccccc1 [Example 4] | 100 | 80 | 36 | – | – | – | –
3 | CN1CC[C@]23c4c5ccc(O)c4O[C@H]2[C@@H](O)C=C[C@H]3[C@H]1C5 [Morphine, reference compound] | – | – | – | – | – | – | ED50 (KM female mice; iv): 1 mg/kg; ED50 (KM female mice; po): 2 mg/kg; ED50 (Kunming mice; po): 4 mg/kg; ED50 (Kunming mice; sc): 1 mg/kg; ED50 (Sprague-Dawley (SD) rats [2]): 0.005 mg/kg
4 | NCC1(CC(=O)O)CCCCC1 [Gabapentin, reference compound] | – | – | – | – | – | – | ED50 (Sprague-Dawley (SD) rats [1]): 50 mg/kg
5 | O=C(CN1CCN(c2nc3ccc(Cl)cc3s2)CC1)c1ccccc1 [Example 14] | 152 | 152 | 78 | – | – | – | –
6 | Cc1ccc2nc(N3CCN(CC(=O)c4ccccc4)CC3)sc2c1 [Example 12] | 200 | 180 | 100 | – | – | – | –
7 | COc1ccc(N2CCN(CC(=O)c3ccccc3)CC2)cc1 [Example 3] | 30 | 30 | 20 | 50 | 19 | – | –
8 | O=C(CN1CCN(c2cccc(Cl)c2Cl)CC1)c1ccccc1 [Example 7] | 60 | 60 | 20 | 60 | 20 | 0.08 | –
9 | COc1cccc(N2CCN(CC(=O)c3ccccc3)CC2)c1 [Example 2] | 15 | 5 | 2 | – | – | 0.1 | –
10 | O=C(CN1CCN(c2cccc(C(F)(F)F)c2)CC1)c1ccccc1 [Example 9] | 10 | 3 | 2 | 20 | 5 | 0.02 | –
11 | COc1ccccc1N1CCN(CC(=O)c2ccccc2)CC1 [Example 1] | 40 | 20 | 15 | 25 | 8 | – | –
12 | O=C(CN1CCN(c2ncccn2)CC1)c1ccccc1 [Example 16] | – | – | – | – | – | – | ED50 (Sprague-Dawley (SD) rats [1]): 167 mg/kg; ED50 (Kunming mice; [3]): 132 mg/kg; ED50 (Kunming mice; [4]): 100 mg/kg
13 | O=C(CN1CCN(c2cccc(Cl)c2)CC1)c1ccccc1 [Example 5] | 80 | 50 | 18 | 55 | 20 | 0.06 | –
14 | Cc1cccc(N2CCN(CC(=O)c3ccccc3)CC2)c1C [Example 10] | 15 | 5 | 10 | 30 | 10 | 0.03 | –
15 | COc1ccc2nc(N3CCN(CC(=O)c4ccccc4)CC3)sc2c1 [Example 11] | 180 | 200 | 120 | 150 | 60 | 0.2 | –
16 | O=C(CN1CCN(c2ccc(F)cc2)CC1)c1ccccc1 [Example 8] | – | – | – | – | – | – | ED50 (KM female mice; [8]): 40 mg/kg; ED50 (KM female mice; po, intragastrically, tested 60 minutes after dosing): 120 mg/kg; ED50 (Sprague-Dawley (SD) rats [1]): 150 mg/kg; ED50 (Kunming mice; [3]): 120 mg/kg; ED50 (Kunming mice; [4]): 80 mg/kg; ED50 (Sprague-Dawley (SD) rats [2]): 0.12 mg/kg
